Values of other authors as cited in PMC5087393, “A Toolbox of Genetically Encoded FRET-Based Biosensors for Rapid L-Lysine Analysis” (Sensors (Basel, Switzerland), 2016).
pKd: −log10 of the molar value.

What was measured:
[1] = biological target: LAO-binding protein from S. typhimurium; parameters: method as in PMID 1400387; details: 10 mM NaPi buffer, pH 7.0; read-out: Kd (equilibrium dialysis)
[2] = test system: LAO-binding protein of E. coli; details: read-out: Kd (equilibrium dialysis); without permutation and fluorescent proteins; 10 mM KPi buffer, pH 7.0, 50 mM NaCl

| Structure (SMILES) | pKd [1] | pKd [2] |
| --- | --- | --- |
| N=C(N)NCCC[C@H](N)C(=O)O [L-arginine] | 7.85 | 5.82 |
| N[C@@H](Cc1c[nH]cn1)C(=O)O [L-histidine] | 6.30 |  |
| NCCCC[C@H](N)C(=O)O [L-lysine] | 7.82 | 5.52 |
